Test results published in patent US20250052751A1, “COMPOSITIONS AND METHODS FOR DIAGNOSING AUTOIMMUNE AQUAPORINOPATHY” (The Regents of the University of California, priority 2023, published 2025).

Tests used:
CD4^+ T cells = test: I-A^b:peptide tetramer binding by flow cytometry after peptide immunization; type: cell-based, mouse; settings: Aire^−/− mice, I-A^b:IRBP p277-289 tetramer
Method: (§1) FIGS. 4A-4B. Negative selection of AQP4 p133-149-reactive T cells is bypassed partially in mice deficient in thymic AQP4 expression. (FIG. 4A) AQP4^−/− WT, Foxn1cre-AQP4^fl/fl, Aire^−/−, or Foxn1cre-Fezf2^fl/fl mice were immunized s.c. with peptides indicated. Peptide-specific proliferation of draining lymph node cells was measured by 3H-thymidine incorporation (mean±SEM, representative of five experiments). Comparisons within the five experiments for p133-149 at […]: WT vs. AQP4^−/− (p=0.008), WT vs. Foxn1cre-AQP4^fl/fl (p=0.008). (FIG. 4B) Ten days after peptide immunization, CD4^+ T cells from draining lymph nodes were analyzed for I-A^b: peptide tetramer binding by flow cytometry. Each data point represents the frequency (mean±SEM) of CD4^+ T cells bound to cognate antigen-tetramer in a single mouse. […] For p133-149: WT vs. Aire^−/− (p=0.9), WT vs. Foxn1cre-Fezf2^fl/fl (p=0.3). For p202-218: WT vs. Foxn1cre-AQP4^fl/fl (p=0.3), WT vs. Aire^−/− (p=0.06).
Flow cytometry. For analysis of tetramer binding, AQP4 p133-149, p202-218, IRBP p277-289 and hCLIP p87-101 IA^b tetramers conjugated to PE or APC were provided by the National Institute of Allergy and Infectious Diseases Tetramer Core Facility at Emory University. Lymphocytes were coincubated with 1 mg/ml tetramer conjugated to PE or APC for 2 hours at room temperature, washed and enriched using anti-PE magnetic microbeads (Miltenyi) over a magnetic column. Binding to hCLIP tetramer was used as a negative control. Dead cells were excluded using Live/Dead fixable Aqua Dead Cell Stain Kit (Invitrogen), lineage negative cells were excluded using antibodies to CD11b (M1/70), B220 (RA3-6B2) and CD8 (53-6.7) and positive cells were selected using antibodies to CD3 (145-2C11) and CD4 (RM4.5). 123count eBeads (Invitrogen) were used with unenriched and enriched samples for quantification of the frequency of tet^+CD4^+ T cells (total number of tet^+CD4+ T cells divided by total CD4^+ T cells per mouse). For figures showing tetramer staining, flow cytometry of the unenriched cells are shown. For analysis of GFP^+ T cells, mice were perfused with PBS, and the CNS was dissected, minced, digested with collagenase and DNase I (Roche), and isolated over a Ficoll gradient as described previously (39). Live CD4^+ cells were analyzed with a viability stain (Near-IR), and antibodies to CD11b, B220, CD8 and CD4. Apoptosis was analyzed separately using the same antibody staining, followed by Annexin V and 7-AAD staining in Annexin V binding buffer (BioLegend) per manufacturer's instructions. Cells were quantified using 123count eBeads.

[1] = tested on: draining lymph node cells; test: T cell cross-reactivity between AQP4 and AQP5, ^3H-thymidine proliferation; type: cell-based, mouse; settings: AQP4-deficient mice immunized with 100 μg AQP5 p174-190; cells cultured with AQP4 201-220, then restimulated
Method: FIG. 8. T cells cross-react with AQP4 and AQP5. AQP4-deficient mice were immunized with 100 μg of AQP5 p174-190. Draining lymph node cells were cultured with AQP4 201-220, then restimulated with the different antigens. Proliferation was measured by ^3H-thymidine incorporation of the stimulation to antigen divided by the background stimulation (mean±SEM).
(§2) Proliferation assays. Mice were immunized subcutaneously (s.c.) with 100 μg of AQP4, MOG or IRBP peptide in CFA containing 400 μg M. tuberculosis H37Ra (Difco Laboratories). Lymph nodes were harvested on day 10-12 and cultured at 2×10^5/well with various concentrations of peptide in triplicate wells for 72 hours. […] of ^3H-thymidine was added 18 hours prior to cell harvest, and data are presented as counts per minute (CPM). Stimulation Index (SI) was calculated by dividing CPM in wells with Ag by CPM in wells with no antigen controls of each assay test group.

TCRα deficient mice = test: Adoptive transfer of peptide-primed, AQP4 201-220-cultured Th17 cells into TCRα deficient mice; type: in vivo, mouse; settings: for clinical CNS autoimmune disease after transfer of primed Th17 cells: donor AQP4-deficient mice primed with the peptide, cells cultured with AQP4 201-220, 2×10^7 T cells into TCRα deficient mice; for meningeal and parenchymal infiltrates vs OVA primed T cells: recipients of primed donor T cells, histological analysis
Method: FIGS. 9A-9C. T cells reactive to AQP5, an autoantigen in Sjögren's syndrome also recognize AQP4, the autoantigen in NMO, and can cause CNS autoimmune disease. (FIG. 9A) AQP4-deficient mice were immunized with AQP4 p201-220, AQP5 p174-190 or OVA 323-339. 10-12 days later lymphocytes from draining lymph nodes are removed and cultured with AQP4 201-220 under Th17 polarizing conditions for 72 hours. 2×10^7 T cells were transferred into TCRα deficient mice, followed by 200 ng Pertussis toxin at days 0 and 2. […] Statistics performed using ANOVA with Tukey's test for multiple comparisons. ****P<0.0001.
CNS autoimmune disease induction and analysis. For adoptive induction of CNS disease with primary lymphocytes, mice were immunized s.c. with 100 μg AQP4 or MOG peptides in CFA containing 400 μg M. tuberculosis H37Ra (Difco Laboratories). After 10-12 days, lymph node cells were cultured with 15 μg/ml antigen for 3 days with 20 ng/ml IL-23 and 10 ng/ml IL-6, under Th17 polarizing conditions. 2×10^7 cells were injected i.v. into naïve recipients, which then received 200 ng B. pertussis toxin (Ptx) (List Biological) i.p. on days 0 and 2. Clinical scores: 0=no disease, 1=tail tone loss, 2=impaired righting, 3=severe paraparesis or paraplegia, 4=quadraparesis, and 5=moribund or death.
Histopathology. Brain, spinal cord, optic nerve, kidney and muscle tissue samples were fixed in 10% neutral-buffered formalin, paraffin-embedded, sectioned and stained with H&E. Meningeal and parenchymal inflammatory lesions and areas of demyelination were assessed in a blinded manner as described (39).

[2] = target: T1, MHC class II I-A^b molecules (Mus musculus, UniProt P14434+P14483); test: I-A^b affinity assay (competitive binding against a radiolabeled high-affinity peptide); settings: purified I-A^b; unlabeled peptide vs radiolabeled high-affinity competitor peptide
T1 construct: made in house
T1 sequence (P14434 24-256): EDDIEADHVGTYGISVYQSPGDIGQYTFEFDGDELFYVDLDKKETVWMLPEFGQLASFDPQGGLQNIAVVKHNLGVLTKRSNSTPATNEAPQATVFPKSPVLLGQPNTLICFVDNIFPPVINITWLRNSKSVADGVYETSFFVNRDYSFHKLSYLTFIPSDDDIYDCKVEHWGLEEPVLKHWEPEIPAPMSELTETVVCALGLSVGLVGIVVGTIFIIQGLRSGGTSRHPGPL
T1 sequence (P14483 28-265): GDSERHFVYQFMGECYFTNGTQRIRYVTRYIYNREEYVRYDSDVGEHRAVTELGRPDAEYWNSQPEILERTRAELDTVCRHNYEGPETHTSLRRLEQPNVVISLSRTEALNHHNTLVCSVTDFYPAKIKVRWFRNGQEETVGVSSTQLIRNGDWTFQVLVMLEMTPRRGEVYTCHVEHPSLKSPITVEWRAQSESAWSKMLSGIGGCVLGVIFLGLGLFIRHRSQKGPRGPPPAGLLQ
Method: (§3) FIGS. 2A-2F. Pathogenic AQP4 determinants bind I-A^b with high affinity and elicit proliferation of AQP4: I-A^b-specific TCR-bearing T cells in AQP4-deficient mice. (FIG. 2A) WT or AQP4^−/− mice were immunized s.c. with peptides indicated. Peptide-specific proliferation of draining lymph node cells was measured by 3H-thymidine incorporation (mean±SEM, representative of five experiments). (FIG. 2B) Lymph node cells from AQP4 immunized WT or AQP4^−/− mice were cultured for 3 days with cognate antigen under Th17 polarizing conditions. AQP4 p133-149- and p202-218-specific Th17 cells from AQP4/donors induce paralysis in WT recipient mice. (FIG. 2C) IEDB, an in silico method for predicting determinants within proteins that bind MHC alleles, was used to identify AQP4 amino acid sequences anticipated to bind I-A^b for recognition by AQP4-specific/I-A^b-restricted CD4^+ T cells. 1/IC50 is plotted against the first amino acid for each overlapping AQP4 15 mer. Peaks correspond to increased predicted binding affinity. (FIG. 2D) Purified I-A^b molecules were tested biochemically for peptide binding affinity using a competitive binding assay between a radiolabeled high-affinity competitor peptide and unlabeled peptides (22). Lower IC50 values indicate higher binding affinity. Boxed amino acids designate the core binding regions. (FIGS. 2E-2F) Lymph node T cells isolated from WT or AQP4−/− mice immunized with AQP4 p133-149 or p202-218 were stained with I-A^b:p133-149 and […] tetramers, bead-enriched and analyzed by flow cytometry. […] Each data point represents one mouse. ****p<0.0001 (Mann Whitney U test).
Both AQP4 p133-149 and p202-218 are predicted to bind MHC II (I-A^b) with high affinity according to the Immune Epitope Database (IEDB) (FIG. 2C), an in silico method for predicting determinants within proteins that bind allele-specific MHC molecules for presentation to T cells (21). We have now examined AQP4 peptide affinity for I-A^b biochemically. I-A^b molecules that were purified by affinity chromatography were tested in a competitive binding assay between a radiolabeled high-affinity competitor peptide and unlabeled peptides (22). Indeed, peptides containing the two pathogenic AQP4 T cell determinants bound I-A^b with higher affinity than the nonpathogenic AQP4 p24-35 T cell epitope or MOG p35-55 (FIG. 2D).
I-A^b affinity Assay. Purification of MHC class II I-A^b molecules by affinity chromatography, and the performance of assays based on the inhibition of binding of a high affinity radiolabeled peptide to quantitatively measure peptide binding, were performed as described (22). Lower IC50 values indicate higher binding affinity. Excellent binders have affinities less than 100 nM and good binders have affinities less than 1000 nM.

[3] = tested on: draining lymph node cells; test: Proliferation assay, ^3H-thymidine incorporation after s.c. peptide immunization; type: cell-based, mouse
Method: as §3, §1, §2

IRBP p277-289: Aire-dependent T cell determinant of interphotoreceptor retinoid-binding protein (FLTVPVSRSLGPL; UniProt P49194 277-289, looked up, fragment) [reference compound]
expansion of CD4^+ tet^+ T cells (CD4^+ T cells): promoted expansion

LVGIYFTGCSMNPARSF [AQP5 p174-190, autoantigen in Sjögren's syndrome]
T cell cross-reactivity [1]: T cell cross-reactivity between AQP5 174-190 and AQP4 201-220 | T cell stimulation (proliferation) [1]: stimulatory | clinical CNS autoimmune disease after transfer of primed Th17 cells (TCRα deficient mice): cause paralysis | clinical CNS autoimmune disease after transfer of primed Th17 cells (TCRα deficient mice; listed as AQP5 174-190): can induce clinical and histologic CNS autoimmune disease | meningeal and parenchymal infiltrates vs OVA primed T cells (TCRα deficient mice): significantly more meningeal and parenchymal infiltrates

AQP4 p201-220: AQP4 T cell epitope (201-220) that causes CNS autoimmunity in mice (HLFAINYTGASMNPARSFGP; UniProt P55088 201-220, looked up, fragment)
peptide binding affinity for I-A^b [2]: exceptionally high affinity | clinical CNS autoimmune disease after transfer of primed Th17 cells (TCRα deficient mice): cause paralysis | meningeal and parenchymal infiltrates vs OVA primed T cells (TCRα deficient mice): significantly more meningeal and parenchymal infiltrates

AQP4 p24-35: nonpathogenic AQP4 T cell epitope (VAFKGVWTQAFW) [reference compound]
discordance in proliferation between AQP4^−/− and WT mice [3]: not observed
